Data: ChEMBL document CHEMBL1201862, “PubChem BioAssay data set” (2004)
The source made the active and inactive calls. Cut-off read from the data, not from the text of the source, for most assays here: actives have a measured AC50 and inactives only a lower limit.

How the values were obtained:
[1] = target: T1, Replicative DNA helicase DnaB (Mycobacterium tuberculosis, UniProt P9WMR3); experiment: DnaB intein splicing inhibitors, dose response, biochemical, cell-free fluorescence (AID 449749); type: functional
T1 sequence (P9WMR3 whole entry): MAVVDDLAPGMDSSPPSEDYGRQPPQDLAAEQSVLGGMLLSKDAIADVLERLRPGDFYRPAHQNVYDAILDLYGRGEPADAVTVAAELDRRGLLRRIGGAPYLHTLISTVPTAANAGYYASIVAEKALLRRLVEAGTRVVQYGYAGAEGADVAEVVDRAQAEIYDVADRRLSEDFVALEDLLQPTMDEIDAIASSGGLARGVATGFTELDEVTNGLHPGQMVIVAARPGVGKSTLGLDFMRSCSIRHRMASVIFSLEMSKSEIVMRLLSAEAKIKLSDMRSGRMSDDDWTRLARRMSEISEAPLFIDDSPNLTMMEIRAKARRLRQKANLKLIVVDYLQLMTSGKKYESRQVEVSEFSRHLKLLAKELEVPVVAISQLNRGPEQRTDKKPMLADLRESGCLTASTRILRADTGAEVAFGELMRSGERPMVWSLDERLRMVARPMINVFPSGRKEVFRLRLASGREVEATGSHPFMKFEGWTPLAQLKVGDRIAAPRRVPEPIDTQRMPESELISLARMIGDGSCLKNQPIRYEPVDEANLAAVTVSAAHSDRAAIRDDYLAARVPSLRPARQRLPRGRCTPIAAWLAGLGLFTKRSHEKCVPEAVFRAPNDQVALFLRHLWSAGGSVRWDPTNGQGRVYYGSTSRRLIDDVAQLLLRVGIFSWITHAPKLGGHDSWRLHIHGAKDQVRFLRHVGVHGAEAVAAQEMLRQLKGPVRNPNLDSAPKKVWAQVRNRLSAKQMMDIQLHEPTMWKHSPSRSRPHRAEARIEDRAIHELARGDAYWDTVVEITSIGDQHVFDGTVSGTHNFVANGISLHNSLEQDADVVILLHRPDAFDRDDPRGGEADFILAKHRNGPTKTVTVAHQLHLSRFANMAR

[2] = target: T2, Histone-lysine N-methyltransferase NSD2 (Homo sapiens, UniProt O96028); type: biochemical
T2 sequence (O96028 whole entry): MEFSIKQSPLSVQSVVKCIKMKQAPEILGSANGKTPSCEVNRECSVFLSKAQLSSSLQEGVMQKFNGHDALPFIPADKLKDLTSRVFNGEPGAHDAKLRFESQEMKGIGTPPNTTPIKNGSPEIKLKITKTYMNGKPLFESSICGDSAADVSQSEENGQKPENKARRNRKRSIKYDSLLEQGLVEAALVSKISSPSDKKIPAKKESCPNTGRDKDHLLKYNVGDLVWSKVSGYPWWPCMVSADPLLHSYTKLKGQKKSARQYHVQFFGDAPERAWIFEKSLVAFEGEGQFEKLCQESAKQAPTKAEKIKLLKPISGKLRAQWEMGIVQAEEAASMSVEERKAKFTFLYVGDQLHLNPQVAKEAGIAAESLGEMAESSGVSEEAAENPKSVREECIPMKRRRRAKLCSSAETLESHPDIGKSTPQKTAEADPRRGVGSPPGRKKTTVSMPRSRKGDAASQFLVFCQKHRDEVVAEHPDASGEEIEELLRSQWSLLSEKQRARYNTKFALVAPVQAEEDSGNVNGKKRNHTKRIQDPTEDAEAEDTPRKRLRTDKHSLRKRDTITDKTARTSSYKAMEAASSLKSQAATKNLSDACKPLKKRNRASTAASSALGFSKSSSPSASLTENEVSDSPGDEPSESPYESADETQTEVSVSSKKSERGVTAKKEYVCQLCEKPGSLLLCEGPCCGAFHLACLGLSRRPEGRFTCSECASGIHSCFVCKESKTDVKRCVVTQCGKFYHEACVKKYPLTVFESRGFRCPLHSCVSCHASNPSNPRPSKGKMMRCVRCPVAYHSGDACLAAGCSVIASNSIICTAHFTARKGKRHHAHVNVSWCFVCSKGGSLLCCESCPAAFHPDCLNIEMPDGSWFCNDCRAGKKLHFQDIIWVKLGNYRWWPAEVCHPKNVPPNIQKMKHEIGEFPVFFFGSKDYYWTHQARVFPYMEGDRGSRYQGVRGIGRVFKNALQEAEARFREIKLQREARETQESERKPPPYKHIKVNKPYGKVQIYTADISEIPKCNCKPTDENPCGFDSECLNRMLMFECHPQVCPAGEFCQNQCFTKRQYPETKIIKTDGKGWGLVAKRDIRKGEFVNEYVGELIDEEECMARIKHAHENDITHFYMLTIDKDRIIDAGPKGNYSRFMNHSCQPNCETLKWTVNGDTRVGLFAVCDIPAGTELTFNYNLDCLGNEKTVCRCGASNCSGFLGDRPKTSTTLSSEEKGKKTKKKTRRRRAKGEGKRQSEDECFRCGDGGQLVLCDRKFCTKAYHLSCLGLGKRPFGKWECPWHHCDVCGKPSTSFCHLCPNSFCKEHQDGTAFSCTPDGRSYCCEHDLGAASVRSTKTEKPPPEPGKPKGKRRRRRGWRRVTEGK

[3] = target: T3, Zinc finger protein mex-5 (Caenorhabditis elegans, UniProt Q9XUB2); experiment: potency of MEX-5 RNA-binding blockers – biochemical, C. elegans, fluorescence polarization, dose response (AID 1960)
T3 sequence (Q9XUB2 whole entry): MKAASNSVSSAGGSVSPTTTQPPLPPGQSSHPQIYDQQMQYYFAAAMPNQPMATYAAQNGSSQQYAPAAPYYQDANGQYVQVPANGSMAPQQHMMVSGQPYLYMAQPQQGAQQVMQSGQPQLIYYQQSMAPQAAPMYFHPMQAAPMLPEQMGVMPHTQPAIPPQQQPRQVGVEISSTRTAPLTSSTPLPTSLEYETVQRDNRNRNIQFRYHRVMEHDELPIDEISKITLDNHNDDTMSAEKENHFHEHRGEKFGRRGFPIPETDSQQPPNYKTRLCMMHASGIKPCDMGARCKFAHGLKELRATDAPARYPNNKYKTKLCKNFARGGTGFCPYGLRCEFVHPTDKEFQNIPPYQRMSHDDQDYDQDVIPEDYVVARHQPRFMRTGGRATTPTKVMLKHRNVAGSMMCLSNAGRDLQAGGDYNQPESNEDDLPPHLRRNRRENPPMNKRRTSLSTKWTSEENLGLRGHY

| Structure (SMILES) | AC50 [1] | AC50 [2] | EC50 [3] |
| --- | --- | --- | --- |
| COC(=O)c1ccc(-c2ccc(C(c3c(C)[nH][nH]c3=O)c3c(C)[nH][nH]c3=O)o2)cc1 | 0.595 µM (inconclusive) | 17.8 µM (active) | – |
| Oc1ccc(/C=N/NC(=S)Nc2cccnc2)c(O)c1O | – | – | 0.086 µM (active) |
